The text below walks through data of ChEMBL document CHEMBL1159172, “Modelisation, Synthesis and Anti-HIV activities of N,N,N,N,N-pentakistetraazamacrocycles salts derivatives” (Bioorg Med Chem Lett, 1997).

Assay [1] has as its system MT4. Put plainly: The compound was tested for its cytotoxic activity against HIV-1 replication in MT-4 cells, (50% cytotoxic concentration). The assay is classed as functional, Homo sapiens. Set-up: unit not given here.
Assay [2] is described as follows: Selectivity index of EC50 and CC50. The class given is functional.
The subject of assay [3] is MT4. Put plainly: The compound was tested for its inhibitory activity against HIV-1 replication in MT-4 cells(50% antiviral effective concentration); IA: inactive. The assay is classed as functional, cell-based, Homo sapiens.

In the assay with MT4 [1], `CC(C)(C)OC(=O)N(CCCCCN1CCCN(CCCCCN(Cc2ccccc2)C(=O)OC(C)(C)C)CCN(CCCCCN(Cc2ccccc2)C(=O)OC(C)(C)C)CCCN(CCCCCN(Cc2ccccc2)C(=O)OC(C)(C)C)CC1)Cc1ccccc1` had a CC50 of more than 10. This molecule also yielded an SI in assay [2] of more than 10.
In the assay on MT4 [1], `CC(C)(C)OC(=O)N(CCCCCN1CCCN(CCCCCN(Cc2ccccc2)C(=O)OC(C)(C)C)CCN(CCCCCN(Cc2ccccc2)C(=O)OC(C)(C)C)CCC[N+](CCCCCN(Cc2ccccc2)C(=O)OC(C)(C)C)(CCCCCN(Cc2ccccc2)C(=O)OC(C)(C)C)CCC1)Cc1ccccc1.Cc1ccc(S(=O)(=O)[O-])cc1` came in with a CC50 of 10. The EC50 entry in the assay on MT4 [3] is reported as “Not Active”.
In the assay on MT4 [1], `CC(C)(C)OC(=O)N(CCCCCN1CCCN(CCCCCN(Cc2ccccc2)C(=O)OC(C)(C)C)CC[N+](CCCCCN(Cc2ccccc2)C(=O)OC(C)(C)C)(CCCCCN(Cc2ccccc2)C(=O)OC(C)(C)C)CCCN(CCCCCN(Cc2ccccc2)C(=O)OC(C)(C)C)CC1)Cc1ccccc1.Cc1ccc(S(=O)(=O)[O-])cc1` showed a CC50 of 50. The SI in assay [2] amounted to 10.
Taken in the same sequence, the figures for `c1ccc(CNCCCCCN2CCCN(CCCCCNCc3ccccc3)CCN(CCCCCNCc3ccccc3)CCCN(CCCCCNCc3ccccc3)CC2)cc1` were 10 and 10.
On the same counts, the results for `C1CNCCNCCCN(CCCN2CCCNCCNCCCNCC2)CCNC1` are more than 100 and more than 100.
For the molecule `[Cl-].c1ccc(CNCCCCCN2CCCN(CCCCCNCc3ccccc3)CCN(CCCCCNCc3ccccc3)CCC[N+](CCCCCNCc3ccccc3)(CCCCCNCc3ccccc3)CCC2)cc1`, the CC50 in the assay with MT4 [1] came out at 10. Also, the EC50 entry with MT4 [3] is “Not Active”.
In the assay with MT4 [1], `[Cl-].c1ccc(CNCCCCCN2CCCN(CCCCCNCc3ccccc3)CC[N+](CCCCCNCc3ccccc3)(CCCCCNCc3ccccc3)CCCN(CCCCCNCc3ccccc3)CC2)cc1` gave a CC50 of 5. In assay [2], this molecule showed an SI of 50.
On the same counts, the results for `CC(C)(C)OC(=O)N(CCCCCN1CCCN(CCCCCN(Cc2ccccc2)C(=O)OC(C)(C)C)CCCN(CCCCCN(Cc2ccccc2)C(=O)OC(C)(C)C)CCN(CCCCCN(Cc2ccccc2)C(=O)OC(C)(C)C)CCC1)Cc1ccccc1` are more than 50 and more than 5.
On to `c1ccc(CNCCCCCN2CCCN(CCCCCNCc3ccccc3)CCCN(CCCCCNCc3ccccc3)CCN(CCCCCNCc3ccccc3)CCC2)cc1`, for which the CC50 in the assay with MT4 [1] is reported as 1.
